# Measured values from article PMC12455390, “Three Is Better than One: A Multimetal Complex that Triggers Immunogenic Cell Death” (Angewandte Chemie (International Ed. in English), 2025).
# Where two headings read alike, the source gives them in different places.
# Legend:
# [1] = test system: CT26 colorectal cancer model; details: CT26 tumors in BALB/c mice, i.p. on days 8, 10, 12 & 14, day 16, doxorubicin 2 mg/kg, mixture 5.7 + 4 + 12 mg/kg, complex 5 21 mg/kg
# Procedure: The experimental protocol consisted of inoculating mice with 1.5 x 10^6 CT26 cells on day 0. When the tumors became palpable, a series of four intraperitoneal (i.p.) injections were carried out on days 8, 10, 12, & 14. On day 16 mice (n = 5) were euthanized and organs including tumors (Figure S37) were collected and analyzed for their metal content via ICP‐MS (Figure 6a). The doxorubicin dosage was based on a previous report.^[ [32] ^]
# Procedures were conducted in accordance with the Guide for the Care and Use of Laboratory Animals (U.S. Public Health Service, National Institute of Health) and the protocol for this experiment was approved by the Institutional Animal Care and Use Committee (IACUC, protocol numbers AUP-2022-00101 & AUP-2024-00337) at The University of Texas at Austin. Briefly, 6-8 weeks female BALB/c mice were acclimatized for 7 days thereafter, murine colon carcinoma cells, CT26 (1.5 x 10^6 cells in 100 μL of sterile PBS) were subcutaneously injected to the right flank. The experiments were initiated once tumors became palpable on Day 8. […] The animals were monitored for the development of pain or distress symptoms with the body weight and tumor size also being closely monitored. […] On day 16, mice were euthanized, and tumor and organs (liver, kidney, spleen, heart and lungs) were collected for ICP-MS metal quantification.
# white blood cells = assay: Total and differential WBC manual count in challenge study; assay type: in vivo, BALB/c mice; details: mice injected with pretreated CT26 cells
# Description: To test this proposition, whole blood samples were collected from mice before vaccination (day ‐7), before challenge (day 0), and 7 days after challenge (day 7) as outlined in Figure 8a. The samples were subjected to a manual count of total white blood cell (WBC) using Tuerk staining and differential leukocytes (monocytes, lymphocytes, neutrophils, eosinophils, and basophils) using Wright staining (see Supporting Information). The results are summarized in Figure 8c as total WBC per µL (Figure 8c), differential percentages of monocytes (Figure 8d), and lymphocytes (Figure 8e) corresponding to an innate and adaptive immune response, respectively. The neutrophil, eosinophil, and basophil levels remained unchanged. […]
# Blood samples were collected from all mice groups by tail vein and were analyzed for total WBC count and differential count.^9 Blood was draw on Day -7 (before vaccination), Day 0 (before rechallenge) and Day 7. Total WBC was analyzed by adding 2 µL of blood to 38 µL Tuerk solution (Sigma-Aldrich product - 93770) and was counted using a hemocytometer after 45 min under a 10x light microscope. […] 200 WBC cells were counted and classified under 1000x magnification using a Leica DMI6000b microscope.
# CT26 challenge model = assay: In vivo CT26 vaccination/challenge model; parameters: species or system BALB/c mice; details: mice vaccinated with CT26 cells pretreated 24 h at IC50, challenged after 7 days
# Procedure: Induction of an immunogenic response in vivo was determined using the established preclinical CT26 challenge model depicted in Figure 8a.^[ [33] ^] […] After 7 days, the mice were challenged with 5 x 10^5 naive CT26 cells injected into the left flank (challenge flank). Mice were monitored thereafter to assess the level, if any, of tumor development on the challenge (left) side. Monitoring was continued for 28 days. […] These are animals in which ICD induction was not expected. Tumor free survival was seen up to day 14 and up to day 21 in the doxorubicin and 1 + Oxa + 2 groups, respectively.
# After 7 days, mice were inoculated s.c. with 5 x 10^5 naive CT26 cancer cells into the contralateral flank. Prior to all injections, the supernatant of one flask per harvest day was tested for mycoplasma contamination (MycoAlert™, Lonza, Rockland, ME), which yielded negative results on all days. Body weights and tumor measurements were checked daily, and tumor development was compared among groups.
smiles,measurement,setting,value
"COc1cccc2c1C(=O)c1c(O)c3c(c(O)c1C2=O)C[C@@](O)(C(=O)CO)C[C@@H]3O[C@H]1C[C@H](N)[C@H](O)[C@H](C)O1 [Doxorubicin, doxorubicin, reference compound]",Inhibition of Tumor Growth,[1],40.8%
same,Inhibition of Tumor Growth,[1]; listed as doxorubicin,~40%
same,total WBC count,"white blood cells; day 0, trends retained through day 7",significant reduction in total WBC count
same,differential monocyte and lymphocyte percentages,white blood cells; days 0 and 7,transient increase in lymphocyte percentages
same,tumor free survival up to day,CT26 challenge model,≤ 14 days
